Measured values taken from patent publication US20070299043A1, “Anti-scarring drug combinations and use thereof” (priority 2005, published 2007).

Columns and labels:
[1] = in vivo; cited from earlier work
[2] = tested on: Chick Chorioallantoic Membrane (CAM); test: Chick chorioallantoic membrane (CAM) angiogenesis assay; assay type: in vivo; details: for Inhibition/n: 48 hours exposure
Method: Fertilized, domestic chick embryos were incubated for 3 days prior to shell-less culturing. In this procedure, the egg contents were emptied by removing the shell located around the air space. The interior shell membrane was then severed and the opposite end of the shell was perforated to allow the contents of the egg to gently slide out from the blunted end. The egg contents were emptied into round-bottom sterilized glass bowls and covered with petri dish covers. These were then placed into an incubator at 90% relative humidity and 3% CO2 and incubated for 3 days.
Paclitaxel (Sigma, St. Louis, […].) was mixed at concentrations of 0.25, 0.5, 1, 5, 10, 30 μg per 10 ul aliquot of 0.5% aqueous methylcellulose. […] Ten microliter aliquots of this solution were dried on parafilm for 1 hour forming disks 2 mm in diameter. The dried disks containing paclitaxel were then carefully placed at the growing edge of each CAM at day 6 of incubation. Controls were obtained by placing paclitaxel-free methylcellulose disks on the CAMs over the same time course. After a 2 day exposure (day 8 of incubation) the vasculature was examined with the aid of a stereomicroscope. Liposyn II, a white opaque solution, was injected into the CAM to increase the visibility of the vascular details. The vasculature of unstained, living embryos were imaged using a Zeiss stereomicroscope which was interfaced with a video camera (Dage-MTI Inc., Michigan City, Ind.). […] Image negatives were then made on a graphics recorder (Model 3000; Matrix Instruments, Orangeburg, N.Y.).
The membranes of the 8 day-old shell-less embryo were flooded with 2% glutaraldehyde in 0.1 M sodium cacodylate buffer; additional fixative was injected under the CAM. After 10 minutes in situ, the CAM was removed and placed into fresh fixative for 2 hours at room temperature. The tissue was then washed overnight in cacodylate buffer containing 6% sucrose. The areas of interest were postfixed in 1% osmium tetroxide for 1.5 hours at 4° C. The tissues were then dehydrated in a graded series of ethanols, solvent exchanged with propylene oxide, and embedded in Spurr resin. Thin sections were cut with a diamond knife, placed on copper grids, stained, and examined in a Joel 1200EX electron microscope. Similarly, […] sections were cut and stained with […] for light microscopy.
At day 11 of development, chick embryos were used for the corrosion casting technique. Mercox resin (Ted Pella, Inc., Redding, Calif.) was injected into the CAM vasculature using a 30-gauge hypodermic needle. […] After injection, the plastic was allowed to sit in situ for an hour at room temperature and then overnight in an oven at 65° C. The CAM was then placed in 50% aqueous solution of sodium hydroxide to digest all organic components. The plastic casts were washed extensively in distilled water, air-dried, coated with gold/palladium, and viewed with the Philips 501B scanning electron microscope.
After 48 hours exposure to paclitaxel at concentrations of 0.25, 0.5, 1, 5, 10, or 30 μg, each CAM was examined under living conditions with a stereomicroscope equipped with a video/computer interface in order to evaluate the effects on angiogenesis. This imaging setup was used at a magnification of 160× which permitted the direct visualization of blood cells within the capillaries; thereby blood flow in areas of interest may be easily assessed and recorded. For this study, the inhibition of angiogenesis was defined as an area of the CAM (measuring 2-6 mm in diameter) lacking a capillary network and vascular blood flow. Throughout the experiments, avascular zones were assessed on a 4 point avascular gradient (see the table below). This scale represents the degree of overall inhibition with maximal inhibition represented as a 3 on the avascular gradient scale. Paclitaxel was very consistent and induced a maximal avascular zone (6 mm in diameter or a 3 on the avascular gradient scale) within 48 hours depending on its concentration. […]

MMP-3 (stromelysin) = test: IL-1 induced MMP-3 (stromelysin) mRNA expression in chondrocytes, Northern blot; assay type: cell-based
Method: (§1) Cells were treated with paclitaxel at various concentrations (10^−7 to 10^−5 M) for 24 hours, then treated with IL-1β (20 ng/ml) for additional 18 hours in the presence of paclitaxel. Total RNA was isolated, and the MMP-1 mRNA levels were determined by Northern blot analysis. The blots were subsequently stripped and reprobed with ^32P-radiolabeled rat GAPDH cDNA, which was used as a housekeeping gene. […] Quantitation of collagenase-1 and stromelysin-expression mRNA levels were conducted. The MMP-1 and MMP-3 expression levels were normalized with GAPDH.

[3] = tested on: ACL injured guinea pig knees (osteoarthritis); test: Inhibition of cartilage damage in the ACL injured Hartley guinea pig model of osteoarthritis; assay type: in vivo, Hartley guinea pigs; details: hyaluronic acid formulation; low dose (dose 1) and medium dose (dose 2); 5 weekly intra-articular injections; ten weeks after injury
Text: The skin on the right knee was sterilized. A 20G needle was introduced in the knee joint using a medial approach and the anterior cruciate ligament was cut with the sharp end of the needle.
Two weeks after the initial procedure, the animals were anesthetized with isoflurane (5% induction −2% maintenance) and weighed. […] The skin of the injured knee was sterilised. […] Injections were repeated weekly for a total of 5 injections. Sample size was N=12 for each formulation. Two doses of paclitaxel and control formulation were tested.
A final knee measurement was taken. The skin over the knee area was removed without damaging subcutaneous tissues. The knee joints were then harvested en bloc and placed into a formaldehyde (37%)/acetic acid solution (5:1 ratio) for fixation. Samples were sent to an independent laboratory for the conduct of histological preparation of joints and assessment by a pathologist for signs of cartilage damage.
Briefly knee sections were made to examine cartilage and slides were stained with H&E stain. […] Bar graphs were constructed from each group and compared.

AP-1 [4] = test: IL-1 induced AP-1 binding activity in chondrocyte lysates (FIG. 3); assay type: cell-based; details: lysates from chondrocytes pretreated with paclitaxel
cartilage = test: Hartley guinea pig knees with ACL damage, joint and cartilage score (FIG. 7, 8); assay type: in vivo
MMP-1 (collagenase-1) = test: IL-1 induced MMP-1 (collagenase) mRNA expression in chondrocytes, Northern blot; assay type: cell-based
Method: as §1

AP-1 [5] = test: IL-1 stimulated AP-1 transcriptional activity (AP-1 driven CAT reporter gene) in transfected chondrocytes; assay type: cell-based; details: paclitaxel 10^−7 to 10^−5 M, concentration dependent; IL-1 50 ng/ml, 24 hours
Method: Chondrocytes were transfected with constructs containing an AP-1 driven CAT reporter gene, and stimulated with IL-1, IL-1 (50 ng/ml) was added and incubated for 24 hours in the absence and presence of paclitaxel at various concentrations. […] The data noted with an asterisk (*) have significance compared with IL-1-induced CAT activity according to a t-test, P<0.05. The results shown are representative of three independent experiments.

[6] = tested on: collagenase and stromelysin; test: IL-1 induced collagenase and stromelysin RNA levels in chondrocytes (FIG. 4, 5); assay type: cell-based; details: pretreatment
AP-1 [7] = test: IL-1 induced AP-1 DNA binding activity, gel mobility shift assay with chondrocyte extracts; assay type: cell-based; details: chondrocytes pretreated with paclitaxel 10^−7 to 10^−5 M for 24 hours
Method: Binding activity was assayed with a radiolabeled human AP-1 sequence probe and gel mobility shift assay. Extracts from chondrocytes untreated or treated with various amounts of paclitaxel (10^−7to 10^−5 M) followed by IL-1β (20 ng/ml) were incubated with excess probe on ice for 30 minutes, followed by non-denaturing gel electrophoresis. The “com” lane contains excess unlabeled AP-1 oligonucleotide. The results shown are representative of three independent experiments.

[8] = tested on: knee joint (synovial cavity); test: Maximum tolerated dose (MTD) of a drug after intra-articular injection; details: for MTD (dose for which knee inflammation was not observed): 0.1 mL intra-articular
Method: Male Hartley guinea pigs, at least 6 weeks old, were anaesthetized using 5% isoflurane in an enclosed chamber. The animals were weighed and then transferred to the surgical table where anesthesia was maintained by nose cone with 2% isoflurane. The knee area on both legs was shaved and knee width at the head of the femur was measured on both knees. The skin on the right knee was sterilized. A 25G needle was introduced into the synovial cavity using a medial approach and 0.1 mL of the test formulation was injected. Three or seven days after the injection, the animals were sacrificed by cardiac injection of 0.7 mL Euthanyl under deep anesthesia (5% isoflurane). Sample size was N=3 for each formulation.
Knee function was assessed before sacrifice by recording changes in walking behavior and signs of tenderness. The animal was weighed immediately after sacrifice. The width of both knees at the head of the femur was then measured with calipers. The knee joint was dissected open by transecting the quadriceps tendon, cutting through the lateral and medial articular capsule and flipping the patella over the tibia. Knee inflammation was assessed by recording signs of swelling, vascularization, fluid accumulation and change in color in subcutaneous tissue as well as inner joint structures. Photographs were taken to document findings. All data was recorded by observers blinded to the treatment groups.

[9] = tested on: Candida albicans, Trichophyton spp., Epidermophyton spp., and Aspergillus spp.; details: cited from earlier work
endo-exonuclease = details: PCT Publication No. WO 01/35935; cited from earlier work
[10] = biological target: protein tyrosine phosphatase 1B (PTP1B) (Homo sapiens, UniProt P18031); details: cited from earlier work
[11] = tested on: phosphatases of regenerating liver (PRL); details: cited from earlier work
[12] = tested on: Candida spp., Aspergillus spp., Sporothrix schenckii, Penicillium marneffei, Malassezia furfur, Cryptococcus neoformans, Trichosporon spp. and …; details: against most of the listed species; cited from earlier work
[13] = in vivo; cited from earlier work; remark: listed apart in the source
[14] = 10^−5 M paclitaxel, pretreatment 24 hours

Chain of protein tyrosine phosphatase 1B (PTP1B) (P18031 whole entry): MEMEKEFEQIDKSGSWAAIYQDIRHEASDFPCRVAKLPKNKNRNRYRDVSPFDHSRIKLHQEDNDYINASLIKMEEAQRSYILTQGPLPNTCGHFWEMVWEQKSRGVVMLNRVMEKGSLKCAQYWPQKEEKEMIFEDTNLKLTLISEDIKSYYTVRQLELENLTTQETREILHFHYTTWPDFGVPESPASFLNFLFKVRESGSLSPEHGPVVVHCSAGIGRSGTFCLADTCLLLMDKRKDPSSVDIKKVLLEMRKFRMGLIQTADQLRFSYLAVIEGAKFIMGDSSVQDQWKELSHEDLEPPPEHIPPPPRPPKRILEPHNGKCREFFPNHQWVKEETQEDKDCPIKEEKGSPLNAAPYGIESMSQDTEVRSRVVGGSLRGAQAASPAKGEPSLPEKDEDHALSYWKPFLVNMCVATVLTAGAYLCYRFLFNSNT

For `O=C(Nc1ccc([N+](=O)[O-])cc1Cl)c1cc(Cl)ccc1O` [Niclosamide, niclosamide], the toxicity in mammals [1] is listed as “very low toxicity”.

In the case of `CC(=O)O[C@H]1C(=O)[C@@]2(C)[C@H]([C@H](OC(=O)c3ccccc3)[C@]3(O)C[C@H](OC(=O)[C@H](O)[C@@H](NC(=O)c4ccccc4)c4ccccc4)C(C)=C1C3(C)C)[C@]1(OC(C)=O)CO[C@@H]1C[C@@H]2O` [paclitaxel], the Inhibition/n ([2]; 0.25 ug in methylcellulose (10 ul)) is reported as 2/11, the Inhibition/n ([2]; 0.5 ug in methylcellulose (10 ul)) is reported as 6/11 and the Inhibition/n ([2]; 1 ug in methylcellulose (10 ul)) is reported as 6/15. The Inhibition/n ([2]; 5 ug in methylcellulose (10 ul)) was 20/27, the Inhibition/n ([2]; 10 ug in methylcellulose (10 ul)) was 16/21 and the Inhibition/n ([2]; 30 ug in methylcellulose (10 ul)) was 31/31. The “maximal avascular zone on the avascular gradient scale” value ([2]; within 48 hours depending on concentration) was 3, the “IL-1 induced stromelysin mRNA levels” value (MMP-3 (stromelysin); [14]) was “complete inhibition” and the “concentration capable of inhibiting stromelysin expression in vitro” value (MMP-3 (stromelysin); chondrocytes) was 10^−6 M. For the same compound, the “cartilage damage (pathologist score)” value [3] was “statistical reduction in cartilage damage relative to control”, the “IL-1 induced binding activity” value (AP-1 [4]) was “decreased” and the “average rank of joint scores, dose response trend” value (cartilage; Hartley guinea pig knees with ACL damage, p<0.02) was “statistically significant”. For the same compound, the “cartilage in knee cross section” value (cartilage; dose 1 (low dose)) was “fraying of cartilage”, the “cartilage in knee cross section” value (cartilage; dose 2 (medium dose)) was “minor defects to cartilage” and the “IL-1 induced collagenase mRNA levels” value (MMP-1 (collagenase-1); [14]) was “complete inhibition”. For the same compound, the “concentration capable of inhibiting collagenase expression in vitro” value (MMP-1 (collagenase-1); chondrocytes) was 10^−6 M, the “IL-1 induced AP-1 reporter gene CAT activity” value (AP-1 [5]) was “reduced IL-1 induced AP-1 reporter gene CAT activity” and the “IL-1 induction of collagenase and stromelysin RNA levels” value [6] was “can be inhibited”. The “IL-1 induced AP-1 binding to oligonucleotides” value (AP-1 [7]) was “IL-1 induced binding activity decreased”, the “MTD (dose for which knee inflammation was not observed)” value ([8]; co-solvent formulation, 3 day evaluation) was 1.5 mg/mL and the “MTD (dose for which knee inflammation was not observed)” value ([8]; triblock gel formulation according to Example 34, evaluation at 7 days) was 0.075 mg/mL. The tolerated doses ([8]; triblock gel formulation, evaluation after three days) was “up to 0.15 mg/ml”.

In the case of `Cc1cc(C2CCCCC2)n(O)c(=O)c1` [Ciclopirox, ciclopirox], the antifungal activity [9] is listed as “fungistatic and fungicidal”.

For `N=C(N)c1ccc(OCCCCCOc2ccc(C(=N)N)cc2)cc1` [pentamidine], the “inhibition of the activity of endo-exonuclease” value (endo-exonuclease) is given as “inhibit the activity”, the “inhibition of PTP1B” value [10] is given as “effective inhibitor” and the “inhibition of oncogenic phosphatases of regenerating liver” value [11] is given as “potent inhibitor”.

For `CN(C/C=C/C#CC(C)(C)C)Cc1cccc2ccccc12.Cl` [terbinafine, terbinafine hydrochloride], the “in vitro antifungal activity” value [12] is given as “has activity”.

For `CN(C)/N=N/c1[nH]cnc1C(N)=O` [Dacarbazine, dacarbazine], the “absorption from the GI tract” value [13] is listed as “poorly absorbed”.
